Data as given in a melting point compilation (Tetko et al.; mined from patent text by program, amines drawn as free bases though some values may be those of a salt).

melting point [°C]	Structure (SMILES)
178 to 179	COC(=O)c1cc(N)c(N2CCCCC2)c(S(C)(=O)=O)c1
148 to 149	CN(C)S(=O)(=O)N1CCN(c2ccnc(CO)n2)CC1
202 to 204	Cc1nc2c(N)nc3ccc(OCc4ccccc4)cc3c2n1CCCCNC(=O)Nc1ccccc1
146 to 147	CCOC(=O)CCC(NC(=O)c1ccc(CNCC2CNc3nc(NC(=O)C(C)(C)C)nc(O)c3C2)cc1)C(=O)OCC (centres undefined)
45	CCOc1ccc(C#N)c(F)c1F
110 to 111	C=CCc1cc(C(C)=O)c(O)cc1OCCCCC(=O)O
> 300	CC1SC(=O)NN=C1c1ccc2c(c1)C(=NNC(=O)c1cccs1)C(=O)N2 (centres undefined)
154 to 155	O=C(NCCCCCNC(=O)c1ccc(OC(F)(F)F)cc1)c1ccc(OC(F)(F)F)cc1
266	CCc1ccc2[nH]c3cnn(C)c3c(=O)c2c1
101 to 102	CC(=CS(N)(=O)=O)c1ccccc1
102 to 104	O=C(NCc1cccnc1)C(F)(F)F
117 to 118	CCCCCCCCCCCCCCCCCCOc1ccc(C(=O)O)o1
118 to 120	O=[N+]([O-])CS(=O)(=O)c1ccc(Oc2ccccc2)cc1
229 to 231	O=C(O)c1ccccc1N1CCN(CC(O)COc2ccc3c(c2)OCO3)CC1 (centres undefined)
139 to 141	N#Cc1c[nH]c2cccc(OCc3ccccc3)c12
168	COc1ccccc1C1(O)C(O)CCC2CNCC21 (centres undefined)
97 to 98	Nc1cnc2c(c1)CCCC2
135 to 138	CSc1ccc2c(c1)C(Cl)c1ccccc1C=C2 (centres undefined)
70	CCC(O)c1cc2ccccc2cc1CO (centres undefined)
80 to 83	CC(C)(C)OC(=O)[C@@H]1CC[C@H](CC(=O)N[C@@H](Cc2ccc(OCc3c(Cl)cccc3Cl)cc2)C(=O)O)N1Cc1ccccc1
66 to 68	FC(F)(F)c1nnnn1-c1ccc(OCc2ccccc2)c(Br)c1
121 to 122	CCOc1nn(Cc2ccc(OCc3csc(-c4ccccc4)n3)nc2)cc1CCC(=O)O
101 to 103	CCSc1nc(Cl)nc2cccnc12
141 to 142	CCCOC(=O)CS(=O)(=O)C=C1SC=CS1

melting point [°C]	Structure (SMILES)
201 to 203	COc1ccc(-c2cc3cc(F)c(F)cc3[nH]2)cc1NC(=S)Nc1ccc(C(=O)O)cc1
97 to 100	CC(=O)NC(Cc1ccccc1)C(=O)OCc1cc(C)cc(C)c1 (centres undefined)
248	O=C(NC1CCOCC1)c1ccc(-c2cc(-c3c[nH]nc3-c3ccccn3)ccn2)cc1
225 to 228	O=C(O)Cc1ccc(NC(=O)C(COc2cccc(Cl)c2)NS(=O)(=O)c2ccc(Br)cc2)cc1 (racemic)
89 to 91	O=C1CCCN1c1ccc2c(c1)OCO2
121 to 124	CCOC(=O)[C@H](CCc1ccccc1)N[C@@H](Cc1ccccc1)C(=O)NCCc1scnc1C(=O)O
132	COC(=O)C(c1ccc(Cl)cc1)(c1ccc(Cl)cc1)c1ncc[nH]1
137 to 141	O=C1NCCN1CCN1CCC(c2noc3cc(F)ccc23)CC1
103 to 105	CC1(C)[C@H](/C=C/Cl)[C@@H]1C(=O)O (relative stereo)
295 to 298	CCC(CC)C(=O)Nc1ccc2ncn3c(=O)c(C(=O)O)cnc3c2c1
> 300	O=Cc1c[nH]c2ncc(-c3cccc(N4CCN(C(=O)C5CCNCC5)CC4)c3)nc12
223	Cc1nc(-c2cccc(Cl)c2)c2cc(C(O)(c3ccc(Cl)cc3)c3cncn3C)ccc2n1 (centres undefined)
88 to 92	O=C(c1ccc(Cl)cc1)N1CC2CC2(c2ccc(Cl)cc2)C1 (centres undefined)
222 to 224	O=C(O)COc1ccc2c(-c3ccc(Cl)c(Cl)c3)noc2c1Cl
238 to 239	CCc1nc2c(N)nc3ccc(OCc4ccccc4)cc3c2n1C
189 to 190	Nc1ccc(F)c(-c2ccncc2)n1
74	COC(=O)C(c1ccccc1)c1ccccn1 (racemic)
180 to 182	CCNC(C)CCC1(C(N)=O)c2ccccc2-c2ccccc21 (centres undefined)
135	N#Cc1ccc(-n2c(=O)cc(C(F)(F)F)[nH]c2=O)cc1[N+](=O)[O-]
97 to 98	CN1CCCc2ccc(O)cc21
133 to 135	O=C(O)Cc1ccc2c(c1)C(=O)CC2
120 to 122	CC(/C=C/C(=O)OC(C)(C)C)=C\c1ccc([N+](=O)[O-])cc1
103 to 105	CN(CC(=O)O)C(=O)Nc1ccc(Cl)c(Cl)c1
218 to 220	O=C(Nc1cc2ncc(CN3CCCC3)cc2cc1F)c1ccc(-c2ccc(Cl)cc2)cc1

melting point [°C]	Structure (SMILES)
95 to 96	Cc1c(Br)c(C)c(Cc2ccc(C(C)C)cc2)c2c1CCO2
230 to 233	O=[N+]([O-])c1ccc2[nH]c(/C=C/c3ccoc3)nc2c1
129 to 130	CCOC(=O)c1c(NCC(=O)OCCCC(=O)c2ccccc2)c2c(Cl)cc(Cl)cc2n1C(=O)OC(C)(C)C
250 to 252	Clc1cccc(Nc2ncnc3[nH]nc(NCc4ccc(-c5ccccc5)cc4)c23)c1
104	CC(C)(C)OC(=O)Nc1ccc(-c2cc(F)ccc2F)cc1[N+](=O)[O-]
214 to 215	CCOC(=O)Cn1c(=O)[nH]c2ccc(Cl)cc2c1=O
130 to 132	CCOC(=O)N(O)C(C)c1cc(C(C)(C)C)c(O)c(C(C)(C)C)c1 (centres undefined)
138 to 139	COC(=O)CCc1ccc(OCC2CN(c3ccccc3)C(=O)O2)cc1 (centres undefined)
208 to 209	O=C(NCc1cccc(-c2nc(=O)c3ccccc3s2)n1)c1cccs1
77 to 78	O=C1c2cc(OC(F)(F)F)ccc2S(=O)(=O)N1CCCCBr
165 to 166	CCOC(=O)c1c(CN2CCOCC2)nc2cc(OC)c(OC)cc2c1-c1ccc(OC)cc1
126 to 128	CCCCc1nc(Cl)c(COC)n1Cc1ccc(C(=O)O)cc1
142	Clc1ccc(-c2ncoc2-c2ccncc2)cc1Cl
> 250	Cc1c(C(N)=O)nc2c(=O)[nH]c3cc(C(F)(F)F)ccc3n12
192 to 193	NC(=O)N(O)[C@@H]1COc2cc(OCc3ccccc3)ccc21
198 to 200	O=C(O)C(=O)Nc1ccc2c(=O)n3c(nc2c1)C(=Cc1ccccc1)CC3
125 to 127	CCOC(=O)C1=C(CCCc2ccccc2)NC(C)=C(C(=O)OC)C1c1cccc([N+](=O)[O-])c1 (centres undefined)
154 to 155	CCc1cc(S(=O)(=O)c2ccc(N)cc2)cc(N2CCCC2)n1
140 to 142	CCOC(=O)C1=C(C)NC(c2cscn2)=NC1c1cccc(OC)c1 (centres undefined)
115	C=C(C)n1c(=O)n(CCCCl)c2ccccc21
281	N#CC=Cc1ccc(C(=O)O)cc1
85 to 89	O=[N+]([O-])c1ccccc1N1CCc2cc(Cl)ccc21
160 to 162	COC(=O)c1ccc(C(C(N)=O)C(C)c2cc(Cl)ccc2N2CCCC(C)C2)cc1 (centres undefined)
202 to 204	O=C(c1ccc(-c2cnc3c(c2)N(Cc2cc(F)ccc2F)CCN3)cc1)N1CCC(N2CCCC2)CC1

melting point [°C]	Structure (SMILES)
141	Brc1cn2c(Br)cnc2c(N2CCOCC2)n1
227 to 229	CCCc1cc(-c2noc3cc(O)ccc23)ccc1O
144 to 145	CCC(C)(C)c1ccc(OCCCC(=O)Nc2ccc(Cl)c(NC(=O)CC(=O)C(C)(C)Sc3ccccc3)c2)c(C(C)(C)CC)c1
101	CCCCCCCCCCCCCCC(=O)NC1CC(C)(C)N(CC#N)C(C)(C)C1
189 to 191	CCn1nc(-c2ccccc2)c(C(C)=O)c(Nc2cccc(Cl)c2)c1=O
126 to 128	COC(=O)c1cccc2nc(SCCCCCCCCC(=O)Nc3c(SC)cc(C)nc3SC)oc12
47 to 48	CC(Oc1ccc(-c2cccc(S(=O)(=O)NCC(F)(F)F)c2)cc1)C(O)CCc1cccnc1 (centres undefined)
264 to 266	O=C1c2ccc(N=C(c3ccccc3)N3CCCCC3)cc2C(=O)c2ccc(N=C(c3ccccc3)N3CCCCC3)cc21
252 to 253	CN1CCN(c2cc3c(cc2F)c(=O)c(C(=O)O)cn3NCC=O)CC1
143 to 145	Cc1cc(OC23CC4CC(CC(C4)C2)C3)ccc1N
84 to 85	CCCCCC(C#CC1C(O)CC(=O)C1CCCCCCC(=O)OC)OC1CCCCO1 (mixture of isomers)
114 to 115	CC(C)Oc1cc(CCC(=O)O)n(Cc2ccc(Cl)cc2Cl)n1
107 to 108	Cc1cc(C)c2c(c1C)OCC2c1ccc(C2OCCO2)cc1 (centres undefined)
200 to 201	Cc1c(CC(=O)O)cc2ccc(F)cc2c1Cc1ccc(S(=O)(=O)C(F)(F)F)cc1
221	COc1ncccc1-c1ccc(OC2SCC(OC(C)=O)C(OC(C)=O)C2OC(C)=O)c(Cl)n1 (centres undefined)
235 to 237	CCC(C)c1ccc(-n2c(-c3cc(C)c(OCCO)c(C)c3)nc3cc(S(C)(=O)=O)ccc3c2=O)cc1 (centres undefined)
98 to 100	CC(=O)CN1CCNC1=Nc1cc2c(cc1Br)OCCO2
136	Cc1cc2c(cc1C#N)OCC(C)(C)C=C2c1ccccn1
114 to 115	O=C1c2c(ccc(O)c2O)CC1C(=O)c1c(F)c(F)c(F)c(F)c1F (centres undefined)
167 to 170	COc1cc2c(cc1O)CCC1C2CCC2(C)C(=O)CCC12 (centres undefined)
125 to 127	Cn1ncc(C(=O)C2CC2)c1S(N)(=O)=O
180 to 182	COc1cc(Nc2c(C#N)cnc3cc(-c4ccc(CN5CCC[C@@H]5C(N)=O)cc4)ccc23)c(Cl)cc1Cl
204 to 206	COc1cc(N[C@H]2CC[C@H](NCc3ccccc3)CC2)c(Cl)cc1C(N)=O
261 to 264	COc1ccc2c(c1)c1c3c(c(-c4c(Cl)cccc4Cl)cc1n2CCC(N)=O)C(=O)NC3=O

Structure (SMILES)	melting point [°C]
CN1C(=O)C(NC(=O)C(CC2CC2)C2(C(N)=O)CC=CC2)N=C(c2ccccc2)c2ccccc21 (centres undefined)	238 to 240
O=Cc1c(O)cc(O)cc1CCl	164 to 166
COc1cc(C2c3cc4c(cc3C(NC3=CC(=O)N(Cc5ccc(C(F)(F)F)cc5)C3=O)C3COC(=O)C23)OCO4)cc(OC)c1O (centres undefined)	184 to 186
